Patent publication US7189754B2, “Pyrrolidine ester derivatives with oxytocin modulating activity” (Applied Research Systems ARS Holding NV, priority 2001, dated 2007)

What follows are compounds tested against T1, human Oxytocin (hOT) receptor (Homo sapiens, UniProt P30559) (assay: In vitro competition binding assay on hOT receptor with scintillation proximity assay ([125I]-OVTA)). Settings: HEK293EBNA membranes expressing hOT receptor, 0.2 nM [125I]-OVTA, SPA; read-out: Binding affinity human OT-R IC50.
T1 construct: expressed in transfected cells; host or cells: HEK293EBNA
T1 sequence (P30559 1-389): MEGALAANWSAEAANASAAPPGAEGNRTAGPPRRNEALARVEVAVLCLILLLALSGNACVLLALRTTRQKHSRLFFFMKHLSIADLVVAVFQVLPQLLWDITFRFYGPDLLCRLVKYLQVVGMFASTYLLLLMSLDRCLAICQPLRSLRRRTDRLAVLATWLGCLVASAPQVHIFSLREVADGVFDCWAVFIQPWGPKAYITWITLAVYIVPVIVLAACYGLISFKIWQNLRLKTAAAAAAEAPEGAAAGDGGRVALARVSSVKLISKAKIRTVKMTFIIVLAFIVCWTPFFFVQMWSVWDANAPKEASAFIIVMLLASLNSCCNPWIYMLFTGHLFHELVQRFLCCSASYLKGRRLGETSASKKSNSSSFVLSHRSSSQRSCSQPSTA
Description: a) In Vitro Competition Binding Assay on hOT Receptor with Scintillation Proximity Assay (see Cook, N. D. et al. Pharmaceutical Manufacturing International 1992; p.49–53)
This assay allows to determine the affinity of the test compounds for the human Oxytocin (hOT) receptor. Membranes from HEK293EBNA (cells expressing the hOT receptor) were suspended in buffer containing 50 mM Tris-HCl, pH 7.4, 5 mM MgCl2 and 0.1% BSA (w/v). The membranes (2–4 μg) were mixed with 0.1 mg SPA bead coated with wheat-germ aglutinin (WGA-PVT-Polyethylene Imine beads from Amersham) and 0.2 nM of the radiolabelled [^125I]-OVTA (OVTA being Ornithin Vasoactive, an analogue of OT for competitive binding experiments). Non-specific binding was determined in the presence of 1 μM Oxytocin. The total assay volume was 100 μl. The plates (Corning® NBS plate) were incubated at room temperature for 30 min and counted on a Mibrobeta® plate scintillation counter. Competitive binding was performed in presence of compounds of formula (I) at the following concentrations: 30 μM, 10 μM, 1 μM, 300 nM, 100 nM, 10 nM, 1 nM, 100 pM, 10 pM. The competitive binding data were analysed using the iterative, nonlinear, curve-fitting program, “Prism” (GraphPad Software, Inc).
The ability of the pyrrolidine derivatives of formula (I) to inhibit the binding of ^125I-OVTA to the OT-receptor was assessed using the above described in vitro biological assay. Representative values for some example compounds are given in Table 1, where the binding affinity of the compounds is expressed by the IC50 (μM) which is the concentration upon which 50% inhibition of OT-R is achieved. From these values, it can be derived that said test compounds according to formula (I) do show a significant binding to the oxytocin receptor.

Row | IC50 | Compound
1 | 45 nM | CON=C1C[C@@H](C(=O)OC)N(C(=O)c2ccc(-c3ccccc3)cc2)C1 (mixture of isomers) [Methyl (2S,4EZ)-1-([1,1′-biphenyl]-4-ylcarbonyl)-4-(methoxyimino)-2-pyrrolidinecarboxylate]
2 | 100 nM | CON=C1C[C@@H](C(=O)OC)N(C(=O)c2ccc(-c3ccccc3F)cc2)C1 (mixture of isomers) [Methyl (2S,4EZ)-4-(methoxyimino)-1-[(2′-fluoro[1,1′-biphenyl]-4-yl)carbonyl]-2-pyrrolidinecarboxylate]
3 | 28 nM | CON=C1C[C@@H](C(=O)OC)N(C(=O)c2ccc(-c3ccccc3C)cc2)C1 [Methyl (2S,4EZ)-4-(methoxyimino)-1-[(2′-methyl[1,1′-biphenyl]-4-yl)carbonyl]-2-pyrrolidinecarboxylate]
